# Results from article PMC11313944, “Ethyl Acetate Fraction from Eleutherococcus divaricatus Root Extract as a Promising Source of Compounds with Anti-Hyaluronidase, Anti-Tyrosinase, and Antioxidant Activity but Not Anti-Melanoma Activity” (Molecules, 2024).
# Marks after values point to notes of the source that are not given here.
# Legend:
# [1] = tested on: mushroom tyrosinase (mTYR); assay: Tyrosinase inhibition assay (L-tyrosine substrate); format: biochemical; conditions: phenolic acid and eleutheroside standards (Table 6)
# Description: Tyrosinase inhibitor assays were conducted in 96-well plates using a modified method originally described by Wróbel-Biedrawa. The process involves the conversion of […] to L-DOPA, then to DOPA-quinone, facilitated by the tyrosinase enzyme. This reaction results in the solution turning brown. In brief, 10 μL of the sample (concentrations of 10.0, 1.0, and 0.1 mg/mL in 10% DMSO) was combined with 150 μL of a phosphoric buffer containing mushroom tyrosinase (pH = 6.88, 100 U/mL). This mixture was then incubated for 10 min at room temperature. […] Following incubation, L-tyrosine (0.3 mg/mL) was added to each well, and the absorbance was measured at 492 nm (using a kinetic model every 5 min). Two time points (t1 and t2) were selected within the linear range of the graph. All samples were tested in triplicate. […] INHTYR=AC−AS/AC∗100%
# AS—the difference in absorbance between times t2 and t1 for the sample;
# AC—the difference in absorbance between times t2 and t1 for the positive control.
# [2] = biological target: hyaluronidase from bovine testes (bHYAL) (Bos taurus, UniProt Q2YDK3); assay: Bovine hyaluronidase inhibition assay (CTAB turbidimetric); format: biochemical
# Description: Bovine hyaluronidase inhibitor assays were conducted in 96-well plates, following a modified method originally described by Di Ferrante and Studzińska-Sroka. The activity of the compounds or extracts was determined based on the precipitation of non-hydrolyzed hyaluronic acid using cetyltrimethylammonium bromide (CTAB). A 10% water solution of DMSO was used to dissolve the extract. Then, 15 μL of extracts at concentrations of 10.0, 1.0, and 0.1 mg/mL in the well were mixed with an acetate buffer (15 μL, pH = 5.35), an incubation buffer (25 μL, pH = 5.35, 0.01% BSA, 0.45% NaCl), and an enzyme solution (25 μL, 30 U/mL in the incubation buffer). This mixture was incubated at 37 °C for 10 min. Following this, a hyaluronic acid solution (25 μL, 0.3 mg/mL in an acetate buffer with a pH of 5.35) was added. The plates were then incubated for an additional 45 min at 37 °C. After incubation, non-hydrolyzed hyaluronic acid was precipitated by adding 2.5% CTAB (200 μL). The plates were then maintained at 25 °C for 10 min. The intensity of the complex formation was measured at a wavelength of 600 nm. The presence of inhibition was determined by measuring the absorbance of the solution without the inhibitor (AC) and the enzyme (AT). All samples were tested in triplicate. The inhibition of hyaluronidase was calculated using a specific equation, with aescin used as a standard. INHHYAL=AS−AC/AT−AC∗100%
# (§1) AS—absorbance of the HA + sample + enzyme;
# (§2) AC—absorbance of the HA + enzyme;
# (§3) AT—absorbance of the HA + sample.
# [3] = ABTS free radical scavenging activity; conditions: 30 min incubation
# Description: The ABTS free radical scavenging test was conducted following the method outlined by Wu et al. A working solution of ABTS+ was prepared by combining 10 mL of ABTS (7 mM in H2O) with 10 mL of potassium persulfate (2.45 mM in H2O). This mixture was then left to incubate in the dark for 12 h. The ABTS solution was subsequently diluted with water until it reached an absorbance of 0.700 ± 0.03 at 405 nm. Then, volumes of 10 μL of extracts at concentrations of 1 mg/mL, 0.1 mg/mL, and 0.01 mg/mL (dissolved in MeOH) were combined with 190 μL of the ABTS+ solution and incubated for 30 min. The absorbance at 405 nm was measured after the incubation period. Butylated hydroxyanisole (BHA) was used as a control. The antioxidant activity was then calculated using a specific equation. INHABTS=AC−AS/AC∗100%
# AS—the absorbance for sample + ABTS;
# AC—the absorbance without sample + ABTS.
# [4] = DPPH free radical scavenging activity; conditions: 60 min incubation
# Description: The DPPH free radical scavenging test was conducted according to the procedure established by Naseer et al.. A working solution of DPPH• was prepared by dissolving 24 mg of DPPH in 100 mL of […]. This solution was further diluted with methanol until it reached an absorbance of 0.900 ± 0.03 at 515 nm. Subsequently, volumes of 10 μL of extracts at concentrations of 1 mg/mL, 0.1 mg/mL, and 0.01 mg/mL (dissolved in MeOH) were combined with 190 μL of the DPPH• solution and allowed to incubate for 60 min. The absorbance at 515 nm was measured post incubation. Butylated hydroxyanisole (BHA) was used as a control. The antioxidant activity was then calculated using a specified equation. INHDPPH=AC−AS/AC∗100%
# AS—the absorbance for sample + DPPH;
# AC—the absorbance without sample + DPPH.
# A375 melanoma cells = assay: MTT viability assay, A375; format: cell-based, human
# Description: (§4) The following human melanoma cell lines were used in this study: A375 (ATCC:CRL-1619), UACC-647 (CVCL_4049), and SK-MEL-30 (DSMZ:ACC 151). A375 cells were maintained in Dulbecco’s Modified Eagle’s Medium (DMEM). UACC-647 and SK-MEL-30 were cultured in RPMI-1640. All basal media were supplemented with fetal bovine serum (FBS) at a final concentration of 10%. The control used in the study was BJ foreskin fibroblasts (ATCC:CRL-2522). To facilitate the growth of BJ cells, Eagle’s Minimum Essential Medium (EMEM) with 10% FBS was utilized. Tissue culture-treated Petri dishes were used to support all cell lines. A temperature of 37 °C and 5% CO2 were maintained routinely. The cells were expanded for a few passages, then seeded onto 96-well plates, where they were left to attach overnight. The following day, the cells were exposed to E. divaricatus fractionated extracts at descending concentrations, starting from 200 µg/mL, or to a vehicle (DMSO, 0.1%). Alternatively, the cells were treated with doxorubicin (DOX) to independently determine the inhibitory concentrations causing the 10, 50, and 90% levels of maximal inhibition (IC10, IC50, and IC90, respectively) of cellular viability for each melanoma cell line. Then, the melanoma cells were treated with the DOX at IC10, IC50, or IC90, followed by the addition of the fractions of the extracts from E. divaricatus at a dose of 200 µg/mL. Upon 24 h of incubation, the viability of the cells was assessed by MTT assay.
# (§5) Dose–response curves were obtained using GraphPad Prism 8.4.3 software running on a personal computer. Experimental datapoints were fitted to the sigmoidal equation, and the IC50 value was calculated. IC10 and IC90 values were computed using a web tool available at https://www.graphpad.com/ accessed on 20 May 2023.
# SK-MEL-30 melanoma cells = assay: MTT viability assay, SK-MEL-30; format: cell-based, human
# Description: as §4, §5
# UACC-647 melanoma cells = assay: MTT viability assay, UACC-647; format: cell-based, human
# Description: as §4, §5
# [5] = Iron (II) ion chelation assay (ferrozine); conditions: results for 1 mg/mL
# Description: The ion chelation assay was conducted using the method proposed by Li et al. [54]. Initially, 100 μL of extract at a concentration of 1.0 mg/mL was combined with methanol (150 μL, MeOH) and iron(II) chloride (5 μL, FeCl2) at a concentration of 2 mM. Subsequently, 5 μL of ferrozine was added at a concentration of 5 mM. Following a period of incubation, the absorbance was measured at a wavelength of 510 nm. The degree of chelation was then calculated using a specific equation, with ethylenediaminetetraacetic acid (EDTA) serving as a positive control. INHFe^2+=AC−AS/AC∗100%
# AS—the absorbance for sample + ferrozine + FeCl2;
# AC—the absorbance without sample + ferrozine + FeCl2.
# hyaluronidase = conditions: cited from earlier work
# [6] = tested on: MCF-7 human breast adenocarcinoma cell line; set-up: method as in PMID 25918798; conditions: read-out: IC50 antiproliferative; cited from earlier work
# [7] = tested on: human hyaluronidase (hHYAL); conditions: cited from earlier work
# [8] = biological target: T1, human serum hyaluronidase (hHYAL) (Homo sapiens, UniProt Q12794); assay: Human serum hyaluronidase inhibition, serum of children with acute lymphoblastic leukemia; format: biochemical; conditions: mean over sera of 5 patients
# T1 construct: from tissue; host or cells: serum of children diagnosed with acute lymphoblastic leukemia
# T1 sequence (Q12794 22-435): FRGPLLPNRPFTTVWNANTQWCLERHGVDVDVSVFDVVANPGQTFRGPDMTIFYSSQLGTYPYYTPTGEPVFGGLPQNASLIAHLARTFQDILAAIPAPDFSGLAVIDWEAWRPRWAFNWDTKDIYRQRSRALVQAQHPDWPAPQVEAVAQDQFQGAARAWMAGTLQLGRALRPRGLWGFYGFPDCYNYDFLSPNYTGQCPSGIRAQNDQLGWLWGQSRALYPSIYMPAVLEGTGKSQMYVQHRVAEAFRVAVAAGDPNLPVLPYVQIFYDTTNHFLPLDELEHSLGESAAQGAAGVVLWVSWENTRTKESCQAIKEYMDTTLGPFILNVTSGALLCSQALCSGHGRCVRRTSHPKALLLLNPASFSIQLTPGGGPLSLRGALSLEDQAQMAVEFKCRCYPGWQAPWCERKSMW
# Description: Five boys diagnosed with acute lymphoblastic leukemia (ALL) before starting treatment were included in the study. These patients were diagnosed at the Department of Pediatric Hematology and Oncology at Jurasz University Hospital in Bydgoszcz, Poland, between 2019 and 2020. Venous blood samples were collected from each child while fasting and placed into serum tubes supplied by Becton Dickinson, located in Franklin Lakes, NJ, USA. The blood samples were left to clot at room temperature for 30 min, then centrifuged for 20 min at 2000× g, also at room temperature. The samples were then collected and stored at a temperature of −80 °C until the time of analysis. The study was approved by the local Bioethics Committee (approval number 608/2019) and was conducted in accordance with the Declaration of Helsinki.
# The inhibition of human serum hyaluronidase was assessed using modified methods. The activity of the compounds or extracts was determined by precipitating non-hydrolyzed hyaluronic acid with cetyltrimethylammonium bromide (CTAB). […] The intensity of the complex formation was measured at a wavelength of 600 nm. […] The inhibition of hyaluronidase was calculated using a specific equation, with aescin used as a standard. […]
# as §1, §2, §3
# [9] = phenolic acid and eleutheroside standards (Table 6)
# [10] = Homo sapiens, A-375, A375, 24 h
# hyaluronidase from bovine testes (bHYAL), sequence (Q2YDK3 entry or part of it): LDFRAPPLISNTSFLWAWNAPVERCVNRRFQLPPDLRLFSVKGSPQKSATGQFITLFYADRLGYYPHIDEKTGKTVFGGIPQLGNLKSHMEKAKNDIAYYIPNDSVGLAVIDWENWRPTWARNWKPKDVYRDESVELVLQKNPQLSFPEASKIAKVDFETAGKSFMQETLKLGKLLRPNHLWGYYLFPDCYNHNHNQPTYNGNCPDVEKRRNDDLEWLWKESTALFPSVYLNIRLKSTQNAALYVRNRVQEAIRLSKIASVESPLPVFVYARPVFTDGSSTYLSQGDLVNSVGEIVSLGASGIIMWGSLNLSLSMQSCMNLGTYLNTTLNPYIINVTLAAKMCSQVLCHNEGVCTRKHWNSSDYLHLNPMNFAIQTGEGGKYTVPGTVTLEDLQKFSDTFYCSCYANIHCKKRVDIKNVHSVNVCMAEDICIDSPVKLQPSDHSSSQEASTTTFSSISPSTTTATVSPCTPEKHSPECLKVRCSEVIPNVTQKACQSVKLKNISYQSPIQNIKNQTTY
compound,measurement,setting,value
"COc1cc(C2OCC3C(c4cc(OC)c(O[C@@H]5O[C@H](CO)[C@@H](O)[C@H](O)[C@H]5O)c(OC)c4)OCC23)cc(OC)c1O[C@@H]1O[C@H](CO)[C@@H](O)[C@H](O)[C@H]1O (single isomer, unassigned; (-)) [Eleutheroside E, (−)-siringaresinol 4,4″-O-β-D-diglucoside]",IC50 mTYR,[1],no activity
same,IC50 bHYAL,[2]; [9],no activity
"O=C1O[C@H]([C@@H](O)CO)C(O)=C1O [AA, ascorbic acid]",IC50 ABTS,[3],2.27 ± 0.07 ^a µg/mL
same,IC50 DPPH,[4],24.93 ± 0.28 ^ab µg/mL
"COc1ccc(O)c(C(C)(C)C)c1 [BHA, Butylated hydroxyanisole]",IC50 ABTS,[3],2.35 ± 0.11 ^a µg/mL
same,IC50 DPPH,[4],62.52 ± 4.13 ^ab µg/mL
O=C(O)/C=C/c1ccc(O)c(O)c1 [Caffeic acid],IC50 mTYR,[1],56.22 ± 0.67 ^a µg/mL
O=C(/C=C/c1ccc(O)c(O)c1)O[C@@H]1C[C@](O)(C(=O)O)C[C@@H](O)[C@H]1O [Chlorogenic acid],IC50 mTYR,[1],107.52 ± 3.46 ^ab µg/mL
"COc1cccc2c1C(=O)c1c(O)c3c(c(O)c1C2=O)C[C@@](O)(C(=O)CO)C[C@@H]3O[C@H]1C[C@H](N)[C@H](O)[C@H](C)O1 [DOX, doxorubicin]",maximal level of inhibition of viability,A375 melanoma cells; A375,96.38%
same,IC10,"A375 melanoma cells; A375, 24 h",90 nM
same,inhibition of viability,"A375 melanoma cells; A375, DOX alone at IC90",96%
same,IC50,A375 melanoma cells; [10],330 nM
same,IC90,A375 melanoma cells; [10],1190 nM
same,IC50,"SK-MEL-30 melanoma cells; Homo sapiens, SK-MEL-30, 24 h, read-out: IC50 (50% of maximal inhibition of viability)",1520 nM
same,IC90,"SK-MEL-30 melanoma cells; Homo sapiens, SK-MEL-30, 24 h, read-out: IC90 (90% of maximal inhibition of viability)",9630 nM
same,maximal drop of viability,SK-MEL-30 melanoma cells; SK-MEL-30,81.87%
same,IC10 (10% of maximal inhibition of viability),"SK-MEL-30 melanoma cells; SK-MEL-30, 24 h",240 nM
same,IC50,"UACC-647 melanoma cells; Homo sapiens, UACC-647, 24 h",1160 nM
same,IC90,"UACC-647 melanoma cells; Homo sapiens, UACC-647, 24 h",3760 nM
same,maximal suppression of viability,UACC-647 melanoma cells; UACC-647,39.15%
same,IC10,"UACC-647 melanoma cells; UACC-647, 24 h",360 nM
"O=C(O)CN(CCN(CC(=O)O)CC(=O)O)CC(=O)O [EDTA, ethylenediaminetetraacetic acid]",Ferrozine (iron(II) chelation),[5],98.9 ± 0.01%
"COc1cc(/C=C/CO)cc(OC)c1O[C@@H]1O[C@H](CO)[C@@H](O)[C@H](O)[C@H]1O [Eleutheroside B, syringin 4-β-D-glucoside]",IC50 mTYR,[1],no activity
same,IC50 bHYAL,[2]; [9],no activity
O=C(O)c1ccc(O)c(O)c1 [Protocatechuic acid],IC50 mTYR,[1],134.57 ± 3.46 ^b µg/mL
"Cc1c(C)c2c(c(C)c1O)CCC(C)(C(=O)O)O2 (centres unmarked) [TROLOX, 6-hydroxy-2,5,7,8-tetramethylchroman-2-carboxylic acid]",IC50 ABTS,[3],2.85 ± 0.18 ^ab µg/mL
same,IC50 DPPH,[4],13.68 ± 3.53 ^a µg/mL
O=C(/C=C/c1ccc(O)c(O)c1)O[C@H](Cc1ccc(O)c(O)c1)C(=O)O [rosmarinic acid],IC50,hyaluronidase,545000 nM
O=C1OCc2c1c(-c1ccc3c(c1)OCO3)c1cc3c(cc1c2O)OCO3 [taiwanin E],IC50,[6],1470 nM
Eleutheroside E1,IC50 mTYR,[1],no activity
same,IC50 bHYAL,[2]; [9],no activity
aescin,"inhibition of human hyaluronidase activity, range",[7],20.00–47.37%
same,"inhibition of hyaluronidase activity, mean group value",[7],40%
same,"hHYAL inhibition, mean group value",[8],63.8%
same,IC50 bHYAL,[2]; fractions of the 75% methanol extract and control (Table 5),388.8 ± 1.81 ^b µg/mL
